Target: ATP-dependent translocase ABCB1 (Homo sapiens, UniProt P08183)
Assay: TP_TRANSPORTER: inhibition of Doxorubicin transepithelial transport (basal to apical) (Doxorubicin: 3 uM, Quinidine: 50 uM) in MDR1-expressing LLC-PK1 cells
Format: functional, cell-based
Conditions: pig, llc-pk1, 50 µM

Chain of ATP-dependent translocase ABCB1 (P08183 whole entry): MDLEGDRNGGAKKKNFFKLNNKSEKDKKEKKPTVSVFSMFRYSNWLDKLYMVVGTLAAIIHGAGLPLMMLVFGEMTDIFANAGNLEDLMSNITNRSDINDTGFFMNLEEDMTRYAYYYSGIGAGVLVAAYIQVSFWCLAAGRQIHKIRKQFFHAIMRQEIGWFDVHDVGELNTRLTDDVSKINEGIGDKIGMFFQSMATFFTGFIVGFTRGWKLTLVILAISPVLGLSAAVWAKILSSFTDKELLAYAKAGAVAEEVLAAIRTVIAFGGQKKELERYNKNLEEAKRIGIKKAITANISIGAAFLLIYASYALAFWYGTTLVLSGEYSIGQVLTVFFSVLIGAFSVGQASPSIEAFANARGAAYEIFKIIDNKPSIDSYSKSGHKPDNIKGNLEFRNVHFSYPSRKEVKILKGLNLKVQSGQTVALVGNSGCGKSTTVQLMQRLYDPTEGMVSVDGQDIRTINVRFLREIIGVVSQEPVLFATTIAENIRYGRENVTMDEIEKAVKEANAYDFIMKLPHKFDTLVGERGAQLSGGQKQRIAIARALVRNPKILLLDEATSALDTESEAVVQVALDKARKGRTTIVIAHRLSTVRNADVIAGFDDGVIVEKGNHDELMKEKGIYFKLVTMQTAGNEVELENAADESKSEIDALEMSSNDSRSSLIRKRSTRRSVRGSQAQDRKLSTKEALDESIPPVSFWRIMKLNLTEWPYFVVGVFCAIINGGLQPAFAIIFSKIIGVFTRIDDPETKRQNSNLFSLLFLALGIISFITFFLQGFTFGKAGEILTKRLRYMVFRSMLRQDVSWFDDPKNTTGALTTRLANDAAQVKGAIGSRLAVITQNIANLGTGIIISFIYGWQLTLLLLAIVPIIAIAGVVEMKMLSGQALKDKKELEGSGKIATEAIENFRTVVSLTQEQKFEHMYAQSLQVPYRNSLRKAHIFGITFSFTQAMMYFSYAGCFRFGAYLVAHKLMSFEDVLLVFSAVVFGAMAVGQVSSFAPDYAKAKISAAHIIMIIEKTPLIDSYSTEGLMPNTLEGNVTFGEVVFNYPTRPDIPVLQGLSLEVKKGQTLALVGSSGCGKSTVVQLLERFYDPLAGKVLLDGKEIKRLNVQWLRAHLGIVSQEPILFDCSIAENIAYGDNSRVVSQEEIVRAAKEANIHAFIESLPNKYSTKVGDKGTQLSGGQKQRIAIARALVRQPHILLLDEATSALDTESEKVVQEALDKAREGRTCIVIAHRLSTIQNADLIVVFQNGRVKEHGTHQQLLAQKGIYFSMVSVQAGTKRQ

Compound: C=C[C@H]1C[N@@]2CC[C@H]1C[C@H]2[C@H](O)c1ccnc2ccc(OC)cc12 [QUININE]
- Activity: is not an inhibitor [-]

— ChEMBL document CHEMBL2074433, “Specificity of doxorubicin versus rhodamine-123 in assessing P-glycoprotein functionality in the LLC-PK1, LLC-PK1:MDR1 and Caco-2 cell lines” (Eur J Pharm Sci, 2000)
